Reference: PubChem BioAssay AID1259408 (Genetic Toxicology Data Bank (GENE-TOX), 2018)
The source made the active and inactive calls. No rule for the calls is given here.

Test system: GENE-TOX genotoxicity assays, various organisms and cells
Assay: GENE-TOX mutagenicity studies
[1] = Species/Cell Type: Salmonella typhimurium (one or more of the five standard strains: TA98, TA100, TA1535, TA1537, and TA1538), Assay Type: Histidine reverse gene mutation, Ames assay, Assay Code: SAL+, Evaluation Type: Evaluation A (Pre-1980)
[2] = Species/Cell Type: Drosophila melanogaster, Assay Type: Sex-linked recessive lethal gene mutation, Assay Code: SRL+, Evaluation Type: Evaluation A (Pre-1980)

## O=[N+]([O-])c1ccc(N=Nc2c(O)ccc3ccccc23)c([N+](=O)[O-])c1
[1]
  mutagenic call: active; positive

## CC(CCC(C)OS(C)(=O)=O)OS(C)(=O)=O (stereo not given)
[2]
  mutagenic call: active; positive

## NC(=O)N/N=C/c1ccc([N+](=O)[O-])o1
Species/Cell Type: Bacillus subtilis (H17 vs M45), Assay Type: Rec-assay, spot test, DNA effects (bacterial DNA repair), Assay Code: REW+, Evaluation Type: Evaluation A (Pre-1980)
  mutagenic call: active; positive
Species/Cell Type: Chinese hamster ovary (CHO) cells, Assay Type: Forward gene mutation at the HPRT locus, Assay Code: CHO-, Evaluation Type: Evaluation B (Post-1980)
  mutagenic call: inactive; negative
Species/Cell Type: Escherichia coli WP2, Assay Type: Tryptophan reverse gene mutation, Assay Code: WP2T, Evaluation Type: Evaluation A (Pre-1980)
  mutagenic call: no conclusion
Species/Cell Type: Escherichia coli WP2 UVRA, Assay Type: Tryptophan reverse gene mutation, Assay Code: WPU+D, Dose Response: With dose response, Evaluation Type: Evaluation A (Pre-1980)
  mutagenic call: active; positive
Species/Cell Type: Fischer rat embryo (RLV/1706) cells, Assay Type: Cell transformation, viral enhanced, Assay Code: CTR+, Evaluation Type: Evaluation A (Pre-1980)
  mutagenic call: active; positive
Species/Cell Type: Human diploid fibroblasts, Assay Type: Unscheduled DNA synthesis (UDS) in vitro, DNA effects, Assay Code: UDH-, Evaluation Type: Evaluation A (Pre-1980)
  mutagenic call: inactive; negative
Species/Cell Type: Mammalian polychromatic erythrocytes, Assay Type: Micronucleus test, chromosome aberrations, Assay Code: MNTT, Evaluation Type: Evaluation A (Pre-1980)
  mutagenic call: no conclusion
Species/Cell Type: Mouse, Sex: Male, Assay Type: Sperm morphology, Assay Code: SPI-, Evaluation Type: Evaluation A (Pre-1980)
  mutagenic call: inactive; negative
Species/Cell Type: Neurospora crassa, Assay Type: Forward gene mutation, Assay Code: NEF+, Evaluation Type: Evaluation A (Pre-1980)
  mutagenic call: active; positive
Species/Cell Type: Neurospora crassa, Assay Type: Reverse gene mutation, Assay Code: NER+, Evaluation Type: Evaluation A (Pre-1980)
  mutagenic call: active; positive
Species/Cell Type: Nonhuman bone marrow, Assay Type: Chromosome aberrations, in vivo, Assay Code: CY#-, Evaluation Type: Evaluation A (Pre-1980)
  mutagenic call: inactive; negative
Species/Cell Type: Nonhuman, Assay Type: In vivo carcinogenicity studies, Assay Code: CCG+L, Evaluation Type: Evaluation A (Pre-1980)
  call: active; positive
[1]
  mutagenic call: active; positive

## CS(=O)(=O)OC[C@H](O)[C@@H]1CO1
Species/Cell Type: Allium cepa, Assay Type: Chromosome aberrations, Assay Code: ALC+D, Dose Response: With dose response, Evaluation Type: Evaluation A (Pre-1980)
  mutagenic call: active; positive

## CO[C@@H]1C[C@](C)(O)Cc2cc3c(c(O)c21)C(=O)c1c(O)cc2c(c1C3=O)O[C@@H]1O[C@@]2(C)[C@H](O)[C@@H](N(C)C)[C@@H]1O
Species/Cell Type: Mammalian polychromatic erythrocytes, Assay Type: Micronucleus test, chromosome aberrations, Assay Code: MNT+, Evaluation Type: Evaluation B (Post-1980)
  mutagenic call: active; positive
Species/Cell Type: Nonhuman, Assay Type: Sister-chromatid exchange (SCE) in vitro, Assay Code: SC2+, Evaluation Type: Evaluation B (Post-1980)
  mutagenic call: active; positive

## O=S(=O)(O)c1cc(S(=O)(=O)O)c2c(N=Nc3ccc(S(=O)(=O)O)c4ccccc34)c(O)ccc2c1
Species/Cell Type: Bacillus subtilis (H17 vs M45), Assay Type: Rec-assay, spot test, DNA effects (bacterial DNA repair), Assay Code: REWT, Evaluation Type: Evaluation A (Pre-1980)
  mutagenic call: no conclusion
Species/Cell Type: Bacillus subtilis (H17 vs M45T), Assay Type: Rec-assay, spot test, DNA effects (bacterial DNA repair), Assay Code: REXT, Evaluation Type: Evaluation A (Pre-1980)
  mutagenic call: no conclusion
Species/Cell Type: Saccharomyces cerevisiae, Assay Type: Mitotic recombination or gene conversion, Assay Code: YEC-, Evaluation Type: Evaluation A (Pre-1980)
  mutagenic call: inactive; negative

## Nc1nc(-c2cccc3ccccc23)cs1
Species/Cell Type: Salmonella typhimurium, Assay Type: Forward and reverse gene mutation, host-mediated assay, Assay Code: HMAT, Evaluation Type: Evaluation A (Pre-1980)
  mutagenic call: no conclusion

## CCC(C)c1ccccc1OC(=O)NC (stereo not given)
Species/Cell Type: Bacillus subtilis (H17 vs M45T), Assay Type: Rec-assay, spot test, DNA effects (bacterial DNA repair), Assay Code: REX-, Evaluation Type: Evaluation A (Pre-1980)
  mutagenic call: inactive; negative
Species/Cell Type: Escherichia coli WP2, Assay Type: Tryptophan reverse gene mutation, Assay Code: WP2-, Evaluation Type: Evaluation A (Pre-1980)
  mutagenic call: inactive; negative

## Cn1c(CCCC(=O)O)nc2cc(N(CCCl)CCCl)ccc21
Species/Cell Type: Nonhuman, Assay Type: Sister-chromatid exchange (SCE) in vitro, Assay Code: SC2+D, Dose Response: With dose response, Evaluation Type: Evaluation B (Post-1980)
  mutagenic call: active; positive

## CC1CCN(N=O)CC1
Species/Cell Type: Drosophila melanogaster, Assay Type: Aneuploidy, partial sex chromosome loss, chromosome aberrations, Assay Code: DAPT, Evaluation Type: Evaluation A (Pre-1980)
  mutagenic call: no conclusion
Species/Cell Type: Drosophila melanogaster, Assay Type: Aneuploidy, whole sex chromosome loss, chromosome aberrations, Assay Code: DACT, Evaluation Type: Evaluation A (Pre-1980)
  mutagenic call: no conclusion
[2]
  mutagenic call: active; positive
Species/Cell Type: Saccharomyces cerevisiae, Assay Type: Forward gene mutation, Assay Code: YEF+*, Activation: With metabolic activation, Evaluation Type: Evaluation A (Pre-1980)
  mutagenic call: active; positive
Species/Cell Type: Salmonella typhimurium (one or more of the five standard strains: TA98, TA100, TA1535, TA1537, and TA1538), Assay Type: Histidine reverse gene mutation, Ames assay, Assay Code: SAL+*, Activation: With metabolic activation, Evaluation Type: Evaluation A (Pre-1980)
  mutagenic call: active; positive
